The structures appear in SMILES notation.

Experiment in data set [1]: not given
The source holds these as a separate data set.

The nature of data set [2]: Phase I-II study of Lipoplatin combined with gemcitabine: toxicity, DLT, MTD. The format is in vivo, human. Particulars: combined with Lipoplatin 100 mg/m2, every two weeks.
Experimental: Patients and Methods: The gemcitabine dose was kept standard at 1000 mg/m2 and the lipoplatin dose was escalated from 25 mg/m2 to 125 mg/m2. The treatment was administered to advanced pretreated pancreatic cancer patients who were refractory to previous chemotherapy which included gemcitabine.
Gemcitabine was given as a 60 min i.v. infusion in 500 ml normal saline on days 1 and 15 at a dose of 1000 mg/m2 and cycles were repeated every 4 weeks (28 days). The infusions on days 1 and 15 were considered to be 1 cycle. […] Prophylactic administration of recombinant human granulocyte colony-stimulating factor (rhG-CSF) was not allowed. In cases of grade 3 neutropenia, these patients would receive subsequent infusions of pegfilgrastim 6 mg, on the 6th or 7th day and treatment would be postponed for one week. Treatment was administered for at least three cycles or until disease progression. The study was a phase I/II cohort, dose escalation trial of Lipoplatin® and gemcitabine. Its aims were to determine the dose limiting toxicity (DLT) of the combination and to define the maximum tolerated dose (MTD) as a recommended dose for phase II and to collect preliminary data on the efficacy of the drug in pretreated patients with pancreatic cancer. […]
Data set [3] can be described thus: Toxicity of i.v. doses in mice.
Data set [4] can be described thus: Total platinum in rat plasma after i.p. injection (pharmacokinetics, atomic absorption). Particulars: female, Wistar, in vivo, ip, 15 mg/kg. The procedure: For pharmacokinetic studies 20 Wistar female rats, 2-3 months of age were used of an average body weight of 150 g. […] Two animals per time point were used. […] Blood was collected in heparinized Eppendorf tubes and was centrifuged. Total platinum levels in plasma was determined using furnace Atomic Absorption (AA700 Perkin Elmer).
At various time points postinjection blood was drawn, plasma was isolated and total platinum levels were measured for pharmacokinetic studies.
This was calculated by linear regression analysis of the logarithmic plasma concentration-time curve by the formula Kel=[Ln(Cp1)−Ln(Cp2)]/(t2−t1) where t1 and t2 are the starting and ending time points of measurements and Cp1 and Cp2 the starting and ending concentrations of total platinum in plasma for t1 and t2, respectively.
This was calculated by the formula: t½=0.693 (1/Kel). 1/Kel is the mean residence time (MRT), the statistical moment analogy to half-life t½ (Gibaldi et al, 1982).

The subject of data set [5] is human breast cancers in mice. Briefly: Human breast cancer xenografts in mice, intravenous injections. Particulars: 6 intravenous injections with 4 days intervals; Lipoxal 16 mg/Kg, oxaliplatin at its MTD.
Where [6] appears, read: rats i.p., 15 mg/Kg (estimation) (Lipoplatin 30, cisplatin 5 mg/Kg).
Setting [7] is: rats i.p., Lipoplatin 30, cisplatin 5 mg/Kg.
Setting [8] is: female, Wistar, rat, in vivo, ip, 15 mg/kg.

As for `N.N.[Cl][Pt][Cl]` [cisplatin, cis-PtCl2(NH3)2], under “rats i.p.”, the maximum tolerated dose turned out to be 5 mg/kg. Further, the “total platinum in liver from 24 to 150 h” value in data set [1] (rats i.p. 5 mg/Kg) was 1. The “time at which the liver level is attained” value in data set [1] (rats i.p., 15 mg/Kg (cisplatin 5 mg/Kg)) is 20 min. In addition, in data set [1] (setting [6]), the “total platinum, Heart, 5 h” value is reported as 0.2 mg Pt/g tissue; the “total platinum, Kidney, 5 h” value is recorded as 6.8 mg Pt/g tissue; the “total platinum, Liver, 5 h” value is recorded as 2.4 mg Pt/g tissue; the “total platinum, Lung, 5 h” value was 0.7 mg Pt/g tissue. The “total platinum, Spleen, 5 h” value in data set [1] (setting [6]) is reported as 1.2 mg Pt/g tissue. Moreover, in data set [1] (setting [7]), the “total platinum, Brain, 5-7 days” value was 0 mg Pt/g tissue; the “total platinum, Brain, 5 h” value was determined as 0.1 mg Pt/g tissue; the “total platinum, Brain, maximum (7-20 min)” value turned out to be 0.3 mg Pt/g tissue.
For the compound `Nc1ccn([C@@H]2O[C@H](CO)[C@@H](O)C2(F)F)c(=O)n1` [gemcitabine], the “MTD of gemcitabine in the combination” value in data set [2] is listed as 1000 mg/m2.
For `O=C1[O][Pt]2([NH]C3CCCCC3[NH2+]2)[O]C1=O` [oxaliplatin, cis-[(1R,2 R)-1,2-cyclohexanediamine-N,N][oxalato(2-)-O,O] platinum], in data set [3] (5 mg/Kg), the “outcome of mice injected with 5 mg/Kg” value is recorded as “died of toxicity”. In data set [3] (mouse, in vivo), this compound yielded an MTD of 4 mg/kg. Moreover, where the note is “15 mg/Kg i.p.”, the “final body weight at 7 days (150 g before study)” value was 109 g. In addition, where the note is “15 mg/kg i.p.”, the “weight loss of total body weight during 7 days” value is recorded as “over 40 gr”. For the setting “15 mg/kg i.p., 7.8 or 7 days”, the “Weight of total animal organ: Heart” value came to 0.523 g, the “Weight of total animal organ: Kidney” value was found to be 0.475 g, the “Weight of total animal organ: Lung” value is 0.934 g and the “Weight of total animal organ: Spleen” value is 0.188 g. The weight loss (30 mg/Kg i.p., 7 days post-treatment) is on record as 33%. Besides, the “average weight after 7 days (from 150 g)” value (30 mg/Kg i.p., day 7) was determined as 100 g. For the same compound, the “hepatic toxicity / nephrotoxicity” value (rats i.p.) is recorded as “absence of nephrotoxicity”. Moreover, the “time post-injection at which total platinum in plasma reaches zero” value in data set [4] is on record as approximately 100 h. For the same compound, the “effect on human breast cancers in mice” value in data set [5] is listed as “only cause shrinkage, not disappearance”. For the same compound, in data set [1] (setting [8]), the “Kel, kidney” value turned out to be 0.002 h⁻¹ and the “time at which the early spleen maximum is reached” value was 15 to 20 min. In addition, the “Cl, kidney” value in data set [1] (rat, in vivo, ip, 15 mg/kg) worked out at 0.01 h⁻¹.

The record behind these values is patent US20090053302A1, “CANCER TREATMENTS” (priority 2006, published 2009).
